Patent publication US5981494A, “Use of glycosidase inhibitors” (University College London, priority 1997, dated 1999)

Columns and labels:
[1] = test system: thioglycollate-induced peritoneal macrophages; assay: TNF induction from thioglycollate-induced peritoneal macrophages (ELISA and L929 cytotoxicity bioassay); assay type: cell-based, murine
Experimental: Serial dilutions of an extract of parasitized RBC which (undiluted) induced 435 ng/ml of TNF as determined by ELISA and 30,400 U/ml in the bioassay were incubated at pH 8.0 at 37° C. overnight with a series of concentrations of α-galactosidase from Sigma or from Oxford Glycosystems, boiled, neutralised and then tested on macrophages for TNF induction by bioassay and ELISA (means of duplicates). The amount of TNF that would have been induced by the original undiluted extract was then calculated.
(§1) (One of 2 experiments) (A) Rate of reaction of 0.04 U/ml of α-galactosidase at 37° C. with p-nitrophenyl-α-D-galactopyranoside as substrate as determined over the first 3 mins. (B) Malaria toxin from P. yoelii diluted 1/10 and (C) 50 ng/ml of LPS were incubated overnight at 37° C. with 2 U/ml of α-galactosidase,then boiled and tested on macrophages for TNF induction, assayed by ELISA. (Means of duplicates).
Mice bred at University College London ((CBA×Balb/c)F1 or CBA×C57B1) F1) were infected with P. yoelii YM or P. berghei ANKA. Parasitized RBC (1×10^8/ml)in Earle's Balanced Salt Solution (BSS; Life Technologies Ltd, Paisley, U.K.) were incubated at 37° C. overnight, then disrupted by freezing and thawing, digested overnight with 250 μg pronase E (Sigma) per mg of protein (determined by BioRad assay), boiled, treated with 25 μg/ml polymyxin B agarose (Sigma) to eliminate endotoxin, filtered through a 0.2-μm filter (Sartorius AG, Gottingen, Germany) and stored at 4° C. (24). TNF induction from thioglycollate-induced peritoneal macrophages and ELISA assays for murine TNF were described previously (24). Polymyxin B (5 μg/ml) was included in all experiments with malaria toxin to exclude effects from contaminating LPS. A more sensitive one-plate procedure for TNF production and assay was also used (5). Cytotoxicity assays for TNF were done using L929 cells (23). Green coffee bean α-D-galactosidase was obtained from 2 sources (Sigma, Poole, Dorset, UK and Oxford GlycoSystems Ltd, Abingdon, Oxford UK).

[2] = α-galactosidase hydrolysis of p-nitrophenyl-α-D-galactopyranoside (αPNP-Gal); assay type: biochemical
Experimental: as §1
The α-galactosidase hydrolysis of p-nitrophenyl-α-D-galactopyranoside (αPNP-Gal) is optimal at pH 6.0 (4, 9) and undetectable at pH 8.0 (9), as we confirmed, but enhancement of TNF-induction by malaria toxin was greatest at pH 8.0 (FIG. 2.). […] The degree of enhancement also varied with the concentration of LPS, and at higher concentrations enhancement was also detectable at pH 6.0.

[3] = β-galactosidase activity against βPNP-Gal; assay type: biochemical; settings: pH 6.0; α-galactosidase preparations
Text: This was supported by the observation of batch to batch variability and the fact that the stability of the TNF-enhancing activity differed from the αPNP-Gal activity. Although all enzyme preparations were first dialysed and adjusted to the same activity against αPNP-Gal, batches from different sources enhanced to different degrees (as illustrated in FIG. 1). […] Apart from BSA, all preparations contained 3 bands of 33 kD, 29 kD and 27 kD; 28 kD and 36.5 kD isoforms were previously described (4).

**Q.** What does the source list for “α-galactosidase: Green coffee bean α-D-galactosidase obtained from Sigma and Oxford GlycoSystems”?
**A.** TNF secretion of macrophages pre-treated with enzyme, then stimulated with toxin or LPS ([1]; 2 U/ml enzyme for 1 hr at 37° C., then toxin or 2 or 10 ng/ml LPS): did not secrete more TNF than untreated cells; TNF induction from macrophages incubated with enzyme only ([1]; 2 U/ml enzyme only): No TNF was induced; increase in potency of LPS in stimulating the release of TNFα from macrophages ([1]; bacterial derived LPS treated with the enzyme): 10-100 fold; enhancement of TNF induction with boiled enzyme ([1]; boiled enzyme): no enhancement occurred; enhancement of TNF induction by malaria toxin (extracts of infected RBC) pre-treated with enzyme ([1]; extracts of RBC infected with P. yoelii or P. berghei): Significant increase in TNF-induction; pH of greatest enhancement of TNF-induction by malaria toxin ([1]; overnight at 37° C. with 2 U/ml enzyme): 8.0 pH; enhancement of TNF-inducing activity of LPS ([1]; similar pH profile to the toxin): also enhanced; stability of TNF-enhancing capacity on storage ([1]; storage at 4° C.): deteriorated; pH optimum of hydrolysis of αPNP-Gal [2]: 6.0 pH; hydrolysis of αPNP-Gal at pH 8.0 ([2]; pH 8.0): undetectable; β-galactosidase activity against βPNP-Gal [3]: No β-galactosidase activity was detectable
